Results: PMC9602571, “Discovery of a Dual SENP1 and SENP2 Inhibitor” (International Journal of Molecular Sciences, 2022)

What was measured:
SENP2 = target: T1, SENP2 (Homo sapiens, UniProt Q9HC62); assay: Fluorogenic SENP2 assay, SUMO1-AMC substrate; format: biochemical; conditions: n = 2
T1 construct: Human recombinant catalytic domain expressed in E. coli; purchased Enzo BML-UW9765; host or cells: E. coli
T1 sequence (Q9HC62 396-560 limits assumed): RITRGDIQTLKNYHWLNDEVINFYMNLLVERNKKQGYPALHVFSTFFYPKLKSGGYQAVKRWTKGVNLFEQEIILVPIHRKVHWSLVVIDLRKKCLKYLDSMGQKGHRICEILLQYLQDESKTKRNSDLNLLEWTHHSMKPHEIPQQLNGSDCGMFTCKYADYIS
Experimental: The IC50 measurements were conducted at Reaction Biology Corporation, Malvern, PA, USA, with two replications using 10 concentrations starting at 200 μM with a three-fold dilution. Curve fits were performed where the enzyme activities at the highest concentration of compounds were less than 65%. UCH-L3 I was used as a control inhibitor. To SENP2 (Enzo Cat# BML-UW9765, Human recombinant catalytic domain expressed in E. coli.) in reaction buffer (50 mM HEPES, 150 mM NaCl, 0.5 mM EDTA, 1 mM DTT, pH 7.5, 0.01% CHAPS) was delivered the compound stock solution by acoustic technology (Echo550; nanoliter range) and subsequently incubated for 15 min at ambient temperature. The substrate SUMO1-AMC (R&D Systems Cat# UL-551-050, Lot# 07613314A, Fluorescence labeled full-length SUMO1 protein) was delivered to the well-plate to initiate the reaction. The enzyme activities were monitored (Ex/Em = 355/460 nm) as a time-course measurement of the increase in fluorescence signal from SUMO1-AMC for 90 min at ambient temperature. The data were analyzed by taking the slope (signal/time) of linear portion of measurement. The slope was calculated using Excel and the curve fits were performed using GraphPad Prism7 with a four-parameter least-squares fit. The final reaction conditions contained 0.015 nM SENP2 and 300 nM SUMO1/2 or 3-AMC.

UCHL1 = target: T2, UCHL1 (Homo sapiens, UniProt P09936); assay: UCHL1 activity assay, Ubiquitin-AMC substrate; format: biochemical; conditions: n = 2
T2 construct: purchased SignalChem U22-30H
T2 sequence (P09936 1-223): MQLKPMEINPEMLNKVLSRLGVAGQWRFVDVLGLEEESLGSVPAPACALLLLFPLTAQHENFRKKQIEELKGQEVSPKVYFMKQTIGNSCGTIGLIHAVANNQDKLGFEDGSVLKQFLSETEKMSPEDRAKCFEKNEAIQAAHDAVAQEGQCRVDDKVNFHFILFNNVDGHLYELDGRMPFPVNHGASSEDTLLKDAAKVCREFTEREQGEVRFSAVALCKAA
Experimental: (§1) IC50 measurements were conducted at Reaction Biology Corporation, Malvern, PA, USA, with two replications using 10 concentrations starting at 200 μM with three-fold dilution. Curve fits were performed where the enzyme activities at the highest concentration of compounds were less than 65%. UCHL1 II was used as a control inhibitor. The procedure was performed analogous to the fluorogenic SENP2 assay described in 3.3.2. using the UCHL1 enzyme (SignalChem Cat# U22-30H) and Ubiquitin-AMC substrate (Enzo Cat# BML-SE211-0025). The final reaction conditions contained 0.2 nM UCHL1 and 100 nM Ubiquitin-AMC.

Ataxin-3 = target: T3, Ataxin-3 (Homo sapiens, UniProt P54252); assay: Ataxin-3 activity assay, Ubiquitin-AMC substrate; format: biochemical; conditions: n = 2
T3 construct: purchased BPS 80399
T3 sequence (P54252 whole entry): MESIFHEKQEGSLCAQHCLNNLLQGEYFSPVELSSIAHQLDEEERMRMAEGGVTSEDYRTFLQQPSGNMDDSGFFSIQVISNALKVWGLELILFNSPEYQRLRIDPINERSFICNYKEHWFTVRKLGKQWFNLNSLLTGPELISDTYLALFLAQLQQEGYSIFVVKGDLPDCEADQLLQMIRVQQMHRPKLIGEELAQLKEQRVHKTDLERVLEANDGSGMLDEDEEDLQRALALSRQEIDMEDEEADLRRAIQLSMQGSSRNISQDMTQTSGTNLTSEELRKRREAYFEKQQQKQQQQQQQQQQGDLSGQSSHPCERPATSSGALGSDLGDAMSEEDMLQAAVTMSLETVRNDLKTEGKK
Experimental: as §1, with “the Ataxin-3” for “the UCHL1”, “enzyme (BPS” for “enzyme (SignalChem”, “Cat# 80399)” for “Cat# U22-30H)”, “contained 500” for “contained 0.2”, “nM Ataxin-3” for “nM UCHL1”

SENP1 [1] = target: T4, SENP1 (Homo sapiens, UniProt Q9P0U3); assay: Fluorogenic SENP1 assay, SUMO1-AMC substrate; format: biochemical; conditions: SUMO1-AMC 300 nM, 0.02 nM SENP1; interval in parentheses; read-out: IC50 SENP1
T4 construct: Human recombinant, His6-SENP1 Catalytic Domain; His6 (N); purchased Boston Biochem (Bio-Techne AG) E-700
T4 sequence (Q9P0U3 450-613 limits assumed): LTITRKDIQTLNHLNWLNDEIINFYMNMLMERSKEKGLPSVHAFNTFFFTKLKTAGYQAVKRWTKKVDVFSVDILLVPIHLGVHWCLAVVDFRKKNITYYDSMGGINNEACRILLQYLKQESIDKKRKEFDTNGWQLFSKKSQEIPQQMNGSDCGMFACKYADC
Experimental: Human recombinant, His6-SENP1 Catalytic Domain (Boston Biochem Cat# E-700, Bio-Techne AG, Zug, Switzerland) was prepared in reaction buffer (50 mM HEPES, 150 mM NaCl, 0.5 mM EDTA, 1 mM DTT, pH 7.5, 0.01% CHAPS). To this solution, a 20 mM or 50 mM inhibitor stock solution in DMSO was added and the mixture was incubated for 15 min at ambient temperature. […] The slope was calculated using Excel and the curve fits were performed using GraphPad Prism7 with a four-parameter least-squares fit. The final reaction conditions contained 0.02 nM SENP1 and 300 nM SUMO1/2 or 3-AMC).

SENP1 [2] = target: T4, SENP1; assay: Fluorogenic SENP1 assay, SUMO2-AMC substrate; format: biochemical; conditions: n = 2
Experimental: (§2) Human recombinant, His6-SENP1 Catalytic Domain (Boston Biochem Cat# E-700, Bio-Techne AG, Zug, Switzerland) was prepared in reaction buffer (50 mM HEPES, 150 mM NaCl, 0.5 mM EDTA, 1 mM DTT, pH 7.5, 0.01% CHAPS). To this solution, a 20 mM or 50 mM inhibitor stock solution in DMSO was added and the mixture was incubated for 15 min at ambient temperature. […] The data were analyzed by taking the slope (signal/time) of the linear portion of measurement. The slope was calculated using Excel and the curve fits were performed using GraphPad Prism7 with a four-parameter least-squares fit. The final reaction conditions contained 0.02 nM SENP1 and 300 nM SUMO1/2 or 3-AMC).

SENP1 [3] = target: T4, SENP1; assay: Fluorogenic SENP1 assay, SUMO3-AMC substrate; format: biochemical; conditions: n = 2
Experimental: as §2

SENP1 [4] = target: T4, SENP1; assay: Photo crosslinking experiments with SENP1; format: binding; conditions: probe 200 µM, SENP1 10 µM, UV 30 min
Experimental: A buffer exchange of the commercially available 6 × His-SENP1 Protein (Boston Biochem Cat# E-700) to a 50 mM HEPES, 150 mM NaCl; 0.5 mM EDTA, 1 mM DTT, pH 7.5 was performed. A total of 200 μM of the photo affinity probe 56 with or without competitor molecule 11 (400 μM) was incubated in 10 uM SENP1 for 30 min at 0 °C. Subsequently, the mixtures were irradiated in a Proma UV exposure unit equipped with four 8 Watt lamps (Hitachi FL8BL-8, ~350 nm) for 30 min at 0 °C. Then, 50 µL of the crosslinked proteins were mixed with freshly prepared click mix solution (50 μL; 1 mM CuSO4, 1 mM TCEP, 100 uM THPTA from a 5 mM DMSO stock, dissolved in Milli-Q Water) and a 10 mM stock solution of azide fluor 545 (1 μL) and incubated at 0 °C for 14 h. […] Protein samples for SDS-PAGE were first prepared in 1 × Laemmli sample buffer (diluted from 4 × Laemmli sample buffer (ROTI®Load), and subsequently denatured at 100 °C for 15 min. After SDS-PAGE gel electrophoresis separation, the fluorescence was visualized (Ex. 520 nm, Em. 575 nm) on the SDS PAGE gel using ImageQuant^TM 4000 LAS (GE Healthcare, Chicago, IL, USA). Secondly, the gels were stained with Bio-Safe Coomassie Brilliant Blue G-250 (BioRad) for 60 min. De-staining was performed with 40% (v/v) methanol, 10% (v/v) glacial acetic acid, 50% (v/v) Milli-Q water until protein bands became visible.

SMILES	IC50 (SENP2) [µM]	IC50 (UCHL1) [µM]	IC50 (Ataxin-3) [µM]	IC50 (SENP1 [1]) [µM]	melting point	IC50 (SENP1 [2]) [µM]	IC50 (SENP1 [3]) [µM]	covalent labelling of SENP1 by photo probe (TAMRA-azide fluorescence) (SENP1 [4])
O=C(COC(=O)c1ccc(NC(=O)c2cccc(OCc3ccccc3)c2)cc1)c1ccc(Cl)cc1 [Compound 7, reference compound]	9.3	64	> 100	–	–	–	–	–
O=C(O)Cc1cn(CC(=O)N2c3ccccc3NC(=O)C23CCCC3)nn1 [Compound 52, 2-[1-(2-Oxo-2-{3′-oxo-3′,4′-dihydro-1′H-spiro[cyclopentane-1,2′-quinoxalin]-1′-yl}ethyl)-1H-1,2,3-triazol-4-yl]acetic acid]	–	–	–	> 100	230 °C (dec.)	–	–	–
O=C(Cn1nnnc1-c1ccccc1)N1c2ccccc2NC(=O)C12CCCC2 [Compound 54, 1′-[2-(5-Phenyl-1H-1,2,3,4-tetrazol-1-yl)acetyl]-3′,4′-dihydro-1′H-spiro[cyclopentane-1,2′-quinoxalin]-3′-one]	–	–	–	50	197 to 202 °C (dec.)	–	–	–
O=C(Cn1nnc(-c2ccccc2)n1)N1c2cscc2NC(=O)C12CCCC2 [Compound 55, 1′-[2-(5-Phenyl-2H-1,2,3,4-tetrazol-2-yl)acetyl]-3′,4′-dihydro-1′H-spiro[cyclopentane-1,2′-thieno [3,4-b]pyrazin]-3′-one]	5.8	132	> 100	10	231 to 233 °C	18	23	–
C#CCCC1(CCC(=O)N2c3ccccc3NC(=O)C23CCCC3)N=N1 [Compound 56, 1′-{3-[3-(But-3-yn-1-yl)-3H-diazirin-3-yl]propanoyl}-3′,4′-dihydro-1′H-spiro[cyclopentane-1,2′-quinoxalin]-3′-one]	–	–	–	24	–	–	–	fluorescent band was visible
CCCCCCCC(=O)N1c2ccccc2NC(=O)C12CCCC2 [Compound 57, 1′-Octanoyl-3′,4′-dihydro-1′H-spiro[cyclopentane-1,2′-quinoxalin]-3′-one]	–	–	–	6.6	67 to 70 °C	–	–	–
